Where two headings read alike, the source gives them in different places.
What was measured:
[1] = biological target: T1, GABAA R (α5β2γ2) (Homo sapiens, UniProt P18507+P31644); assay: Positive allosteric modulator activity: potentiation of EC20 GABA current in oocytes; format: cell-based
T1 construct: expressed in transfected cells
In short: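 Xenopus oocytes injected with 1 ng α5:β2:γ2 cDNA (1:1:10 by weight), tested day 2, voltage-clamped at −60 mV under MBS superfusion.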

[2] = biological target: α5β3γ2 GABAA R (Homo sapiens, UniProt P18507+P31644); assay: Binding activity on GABAA R: inhibition of [3H]Ro15-1788 binding, α5 containing receptor
In short: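 Membranes from dexamethasone-induced (0.5 μM, 1 day) Ltk cells stably expressing α5β3γ2 receptors, 0.2 mg/ml protein, incubated with [3H]Ro15-1788 for 1 h at 4 °C in 50 mM KH2PO4/1 mM EDTA/0.2 M KCl, pH 7.4. Nonspecific binding with 10 μM diazepam; bound ligand by GF/B filtration and scintillation counting, triplicates.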

[3] = read-out: GABA α5 Functional Data: potentiation, @ 100 nM, EC20 GABA, ranges of the column heads
[4] = read-out: GABA α5 Functional Data: potentiation
[5] = ranges of the column heads, [3H]Ro15-1788, Ltk cell membranes

T1 sequence (P31644 32-462): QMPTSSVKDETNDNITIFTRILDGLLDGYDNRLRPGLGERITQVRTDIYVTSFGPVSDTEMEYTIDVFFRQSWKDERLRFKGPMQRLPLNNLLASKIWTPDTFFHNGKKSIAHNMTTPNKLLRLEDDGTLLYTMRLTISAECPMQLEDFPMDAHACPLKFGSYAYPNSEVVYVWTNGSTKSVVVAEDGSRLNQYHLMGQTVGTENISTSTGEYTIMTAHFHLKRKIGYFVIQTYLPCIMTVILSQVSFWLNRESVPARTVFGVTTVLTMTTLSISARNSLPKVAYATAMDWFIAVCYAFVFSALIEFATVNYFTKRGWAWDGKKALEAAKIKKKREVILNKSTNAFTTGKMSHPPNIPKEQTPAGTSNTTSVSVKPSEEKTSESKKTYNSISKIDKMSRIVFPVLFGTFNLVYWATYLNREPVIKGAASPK
T1 sequence (P47870 25-512 partner limits assumed): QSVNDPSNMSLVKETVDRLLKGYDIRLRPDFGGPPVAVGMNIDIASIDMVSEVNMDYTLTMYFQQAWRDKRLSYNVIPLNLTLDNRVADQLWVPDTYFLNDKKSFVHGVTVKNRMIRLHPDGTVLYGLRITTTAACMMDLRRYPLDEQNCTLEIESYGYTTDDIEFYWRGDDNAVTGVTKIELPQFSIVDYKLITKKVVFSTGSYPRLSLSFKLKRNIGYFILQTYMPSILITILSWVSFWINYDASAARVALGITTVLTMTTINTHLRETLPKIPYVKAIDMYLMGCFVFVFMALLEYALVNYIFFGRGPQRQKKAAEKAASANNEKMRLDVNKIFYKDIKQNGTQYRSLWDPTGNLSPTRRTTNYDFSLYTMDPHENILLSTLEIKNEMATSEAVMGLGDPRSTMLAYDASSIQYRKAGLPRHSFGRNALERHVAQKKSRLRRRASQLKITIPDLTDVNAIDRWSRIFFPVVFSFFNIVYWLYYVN
T1 sequence (P18507 40-475): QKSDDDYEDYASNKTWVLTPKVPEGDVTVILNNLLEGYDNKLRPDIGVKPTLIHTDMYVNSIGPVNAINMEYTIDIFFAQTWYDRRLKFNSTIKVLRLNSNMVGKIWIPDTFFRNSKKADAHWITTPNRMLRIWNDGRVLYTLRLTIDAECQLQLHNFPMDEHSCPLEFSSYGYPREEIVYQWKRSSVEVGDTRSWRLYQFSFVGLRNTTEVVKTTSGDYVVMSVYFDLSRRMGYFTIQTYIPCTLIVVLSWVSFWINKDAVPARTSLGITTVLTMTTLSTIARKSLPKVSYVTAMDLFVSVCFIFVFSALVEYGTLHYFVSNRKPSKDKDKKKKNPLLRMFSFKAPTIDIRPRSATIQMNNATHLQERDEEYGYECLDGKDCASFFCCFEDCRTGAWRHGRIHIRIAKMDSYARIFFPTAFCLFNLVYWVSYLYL
α5β3γ2 GABAA R, sequence (P31644 32-462): as the sequence (P31644 32-462) above
α5β3γ2 GABAA R, sequence (P28472 26-473 partner): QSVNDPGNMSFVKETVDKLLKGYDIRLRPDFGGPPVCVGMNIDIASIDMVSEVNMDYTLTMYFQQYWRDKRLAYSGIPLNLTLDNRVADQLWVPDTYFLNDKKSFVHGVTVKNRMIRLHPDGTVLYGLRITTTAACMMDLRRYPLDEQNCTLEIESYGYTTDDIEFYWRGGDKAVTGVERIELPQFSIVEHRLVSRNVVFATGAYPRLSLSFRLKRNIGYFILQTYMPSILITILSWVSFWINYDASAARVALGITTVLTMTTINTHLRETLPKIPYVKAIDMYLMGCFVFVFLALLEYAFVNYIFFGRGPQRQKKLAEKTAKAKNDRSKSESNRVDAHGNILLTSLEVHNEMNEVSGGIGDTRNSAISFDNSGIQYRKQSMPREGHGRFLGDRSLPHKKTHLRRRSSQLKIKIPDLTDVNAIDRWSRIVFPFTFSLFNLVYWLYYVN
α5β3γ2 GABAA R, sequence (P18507 40-475): as the sequence (P18507 40-475) above

Row | Compound | activation at 0.1 µM [1, 3] | Ki [2] | activation at 0.1 µM [1, 4] | Ki [2, 5]
1 | CCn1cc2c(n1)-c1cc(OC)ccc1-n1cnc(-c3nc(COC)no3)c1C2 [Compound 236] | 20 to 50% | < 100 nM | – | –
2 | COc1ccc2c(c1)-c1nn(C)cc1Cc1c(-c3noc(C(F)(F)F)n3)ncn1-2 [Compound 130] | > 50% | < 100 nM | – | –
3 | COCc1nc(-c2ncn3c2Cc2cn(CC4CCCO4)nc2-c2cc(Cl)ccc2-3)no1 (stereo not drawn) [Compound 304] | 5 to 20% | < 100 nM | – | –
4 | CCn1cc2c(n1)-c1cc(OC)ccc1-n1cnc(-c3nc(C(C)C)no3)c1C2 [Compound 151] | 5 to 20% | < 100 nM | – | –
5 | Cc1noc(-c2ncn3c2Cc2cn[nH]c2-c2cc(Cl)ccc2-3)n1 [Compound 33] | 20 to 50% | < 100 nM | – | –
6 | COc1ccc2c(c1)-c1c(cnn1Cc1ccccc1)Cc1c(-c3nc(C)no3)ncn1-2 [Compound 7] | – | – | 20 to 50% | < 100 nM
7 | COc1ccc2c(c1)-c1nn(CC3CCOC3)cc1Cc1c(-c3nc(C4CC4)no3)ncn1-2 (stereo not drawn) [Compound 168] | 20 to 50% | < 100 nM | – | –
8 | CCn1cc2c(n1)-c1cc(OC)ccc1-n1cnc(-c3noc(C(C)(C)OC)n3)c1C2 [Compound 255] | 5 to 20% | < 100 nM | – | –
9 | FC(F)(F)c1nc(-c2ncn3c2Cc2cn[nH]c2-c2cc(Cl)ccc2-3)no1 [Compound 85] | 5 to 20% | < 100 nM | – | –
10 | CC(C)OCc1noc(-c2ncn3c2Cc2cn(C)nc2-c2cc(Cl)ccc2-3)n1 [Compound 242] | 20 to 50% | < 100 nM | – | –
11 | Cn1cc2c(n1)-c1cc(Cl)ccc1-n1cnc(-c3noc(C4(C)COC4)n3)c1C2 [Compound 225] | 20 to 50% | < 100 nM | – | –
12 | COc1ccc2c(c1)-c1nn(C)cc1Cc1c(-c3noc(C(C)(C)C)n3)ncn1-2 [Compound 146] | 5 to 20% | < 100 nM | – | –
13 | COc1ccc2c(c1)-c1nn(Cc3ccccc3F)cc1Cc1c(-c3nc(C)no3)ncn1-2 [Compound 21] | 5 to 20% | < 100 nM | – | –
14 | COc1ccc2c(c1)-c1nn(C)cc1Cc1c(-c3nc(C(F)(F)F)no3)ncn1-2 [Compound 119] | 5 to 20% | < 100 nM | – | –
15 | COc1ccc2c(c1)-c1[nH]ncc1Cc1c(-c3nc(C(F)(F)F)no3)ncn1-2 [Compound 45] | 20 to 50% | < 100 nM | – | –
16 | COc1ccc2c(c1)-c1nn(C(C)C)cc1Cc1c(-c3nc(C4CC4)no3)ncn1-2 [Compound 169] | – | – | 5 to 20% | < 100 nM
17 | CC(C)c1noc(-c2ncn3c2Cc2cn(Cc4ccccc4)nc2-c2cc(Cl)ccc2-3)n1 [Compound 96] | – | – | 5 to 20% | < 100 nM
18 | COc1ccc2c(c1)-c1[nH]ncc1Cc1c(-c3nc(C)no3)ncn1-2 [Compound 9] | – | – | 5 to 20% | < 100 nM
19 | Cn1cc2c(n1)-c1cc(Cl)ccc1-n1cnc(-c3nc(C4COC4)no3)c1C2 [Compound 237] | 20 to 50% | < 100 nM | – | –
20 | COc1ccc2c(c1)-c1c(cnn1CC1CCCO1)Cc1c(-c3nc(C(C)C)no3)ncn1-2 (stereo not drawn) [Compound 244] | 5 to 20% | < 100 nM | – | –
21 | COc1ccc2c(c1)-c1nn(C)cc1Cc1c(-c3noc(C)n3)ncn1-2 [Compound 131] | 5 to 20% | < 100 nM | – | –
22 | COc1ccc2c(c1)-c1nn(Cc3ccccn3)cc1Cc1c(-c3nc(C(C)C)no3)ncn1-2 [Compound 124] | 20 to 50% | < 100 nM | – | –
23 | CC(C)c1noc(-c2ncn3c2Cc2cn(CC4CCCO4)nc2-c2cc(Cl)ccc2-3)n1 (stereo not drawn) [Compound 193] | 20 to 50% | < 100 nM | – | –
24 | COc1ccc2c(c1)-c1nn(CC3CCCO3)cc1Cc1c(-c3noc(COCC(F)(F)F)n3)ncn1-2 (stereo not drawn) [Compound 292] | 5 to 20% | < 100 nM | – | –
25 | COc1ccc2c(c1)-c1nn(CC3COC3)cc1Cc1c(-c3nc(C4CC4)no3)ncn1-2 [Compound 226] | – | – | 5 to 20% | < 100 nM
26 | COCC1COC(c2ncn3c2Cc2cn(C)nc2-c2cc(Cl)ccc2-3)=N1 (stereo not drawn) [Compound 189] | 20 to 50% | < 100 nM | – | –
27 | FC(F)(F)COCc1nc(-c2ncn3c2Cc2cn(CC4CCCO4)nc2-c2cc(Cl)ccc2-3)no1 (stereo not drawn) [Compound 309] | 5 to 20% | < 100 nM | – | –
28 | CCOC(=O)c1ncn2c1Cc1cnoc1-c1cc(Cl)ccc1-2 [Compound 57] | – | – | 5 to 20% | < 100 nM
29 | CCn1cc2c(n1)-c1cc(Cl)ccc1-n1cnc(-c3nc(C(C)C)no3)c1C2 [Compound 104] | – | – | 5 to 20% | < 100 nM
30 | COc1ccc2c(c1)-c1nn(Cc3cccnc3)cc1Cc1c(-c3nc(C(C)C)no3)ncn1-2 [Compound 125] | 20 to 50% | < 100 nM | – | –

From patent US20240132513A1, “BENZAZEPINE DERIVATIVES, COMPOSITIONS, AND METHODS FOR TREATING COGNITIVE IMPAIRMENT” (AGENEBIO, INC., priority 2022, published 2024)
